In BindingDB's records for doi:10.1016/s0960-894x(01)00323-7 (Kyoto University, 2001):

Key:
[1] = Effective concentration for 50% protection of HIV-induced cytopathogenicity in MT-4 cells on the MTT assay
[2] = Inhibitory concentration determined on an HIV infection model mediated by CXCR4
[3] = Effective concentration for 50% protection of HIV-induced cytopathogenicity in MT-4 cells on the MTT assay; remark: listed apart in the source

| Structure (SMILES) | EC50 [1] | IC50 [2] | EC50 [3] |
| --- | --- | --- | --- |
| NCCCC[C@@H]1NC(=O)[C@H](CCCN=C(N)N)NC(=O)[C@H](Cc2ccc(O)cc2)NC(=O)[C@@H](NC(=O)[C@@H](NC(=O)[C@H](CCCN=C(N)N)NC(=O)[C@@H](N)CCCN=C(N)N)c2ccc3ccccc3c2)CSSC[C@@H](C(=O)N[C@@H](CCCN=C(N)N)C(=O)O)NC(=O)[C@H](CCCNC(N)=O)NC(=O)[C@H](CCCN=C(N)N)NC(=O)[C@H](Cc2ccc(O)cc2)NC(=O)[C@@H]2CCCN2C(=O)[C@@H](CCCCN)NC1=O [Compound T140] | 3.3 nM | 10 nM | – |
| NCCCC[C@@H]1NC(=O)[C@H](CCCN=C(N)N)NC(=O)[C@H](Cc2ccc(O)cc2)NC(=O)[C@@H](NC(=O)[C@@H](NC(=O)[C@H](CCCN=C(N)N)NC(=O)[C@@H](N)CCCN=C(N)N)c2ccc3ccccc3c2)CSSC[C@@H](C(=O)N[C@@H](CCCN=C(N)N)C(=O)O)NC(=O)[C@H](CCCNC(N)=O)NC(=O)[C@H](CCCNC(N)=O)NC(=O)[C@H](Cc2ccc(O)cc2)NC(=O)[C@@H]2CCCN2C(=O)[C@@H](CCCNC(N)=O)NC1=O [Derivative of T140 peptide] | 7.8 nM | – | – |
| NCCCC[C@@H]1NC(=O)[C@H](CCCN=C(N)N)NC(=O)[C@H](Cc2ccc(O)cc2)NC(=O)[C@@H](NC(=O)[C@@H](NC(=O)[C@H](CCCN=C(N)N)NC(=O)[C@@H](N)CCCN=C(N)N)c2ccc3ccccc3c2)CSSC[C@@H](C(=O)N[C@@H](CCCN=C(N)N)C(N)=O)NC(=O)[C@H](CCCNC(N)=O)NC(=O)[C@H](CCCN=C(N)N)NC(=O)[C@H](Cc2ccc(O)cc2)NC(=O)[C@@H]2CCCN2C(=O)[C@@H](CCCCN)NC1=O [Derivative of T140 peptide] | 72 nM | – | – |
| NCCCC[C@@H]1NC(=O)[C@H](CCCN=C(N)N)NC(=O)[C@H](Cc2ccc(O)cc2)NC(=O)[C@@H](NC(=O)[C@@H](NC(=O)[C@H](CCCN=C(N)N)NC(=O)[C@@H](N)CCCN=C(N)N)c2ccc3ccccc3c2)CSSC[C@@H](C(=O)N[C@@H](CCCN=C(N)N)C(N)=O)NC(=O)[C@H](CCCNC(N)=O)NC(=O)[C@H](CCCN=C(N)N)NC(=O)[C@H](Cc2ccc(O)cc2)NC(=O)[C@@H]2CCCN2C(=O)[C@@H](CCCNC(N)=O)NC1=O [Derivative of T140 peptide] | – | 24 nM | 4.6 nM |
| NCCCC[C@@H]1NC(=O)[C@H](CCCN=C(N)N)NC(=O)[C@H](Cc2ccc(O)cc2)NC(=O)[C@@H](NC(=O)[C@@H](NC(=O)[C@H](CCCN=C(N)N)NC(=O)[C@@H](N)CCCN=C(N)N)c2ccc3ccccc3c2)CSSC[C@@H](C(=O)N[C@@H](CCCN=C(N)N)C(N)=O)NC(=O)[C@H](CCCNC(N)=O)NC(=O)[C@H](CCCNC(N)=O)NC(=O)[C@H](Cc2ccc(O)cc2)NC(=O)[C@@H]2CCCN2C(=O)[C@@H](CCCNC(N)=O)NC1=O [Derivative of T140 peptide] | 2.7 nM | – | – |
| NCCCC[C@@H]1NC(=O)[C@H](CCCN=C(N)N)NC(=O)[C@H](Cc2ccc(O)cc2)NC(=O)[C@@H](NC(=O)[C@@H](NC(=O)[C@H](CCCN=C(N)N)NC(=O)[C@@H](N)CCCNC(N)=O)c2ccc3ccccc3c2)CSSC[C@@H](C(=O)N[C@@H](CCCN=C(N)N)C(=O)O)NC(=O)[C@H](CCCNC(N)=O)NC(=O)[C@H](CCCN=C(N)N)NC(=O)[C@H](Cc2ccc(O)cc2)NC(=O)[C@@H]2CCCN2C(=O)[C@@H](CCCNC(N)=O)NC1=O [Derivative of T140 peptide] | 36 nM | – | – |
| NCCCC[C@@H]1NC(=O)[C@H](CCCN=C(N)N)NC(=O)[C@H](Cc2ccc(O)cc2)NC(=O)[C@@H](NC(=O)[C@@H](NC(=O)[C@H](CCCN=C(N)N)NC(=O)[C@@H](N)CCCNC(N)=O)c2ccc3ccccc3c2)CSSC[C@@H](C(=O)N[C@@H](CCCN=C(N)N)C(N)=O)NC(=O)[C@H](CCCNC(N)=O)NC(=O)[C@H](CCCN=C(N)N)NC(=O)[C@H](Cc2ccc(O)cc2)NC(=O)[C@@H]2CCCN2C(=O)[C@@H](CCCNC(N)=O)NC1=O [Derivative of T140 peptide] | 1.2 nM | – | – |
| NCCCC[C@@H]1NC(=O)[C@H](CCCNC(N)=O)NC(=O)[C@H](Cc2ccc(O)cc2)NC(=O)[C@@H](NC(=O)[C@@H](NC(=O)[C@H](CCCN=C(N)N)NC(=O)[C@@H](N)CCCN=C(N)N)c2ccc3ccccc3c2)CSSC[C@@H](C(=O)N[C@@H](CCCN=C(N)N)C(=O)O)NC(=O)[C@H](CCCNC(N)=O)NC(=O)[C@H](CCCN=C(N)N)NC(=O)[C@H](Cc2ccc(O)cc2)NC(=O)[C@@H]2CCCN2C(=O)[C@@H](CCCCN)NC1=O [Derivative of T140 peptide] | – | 8 nM | 2.8 nM |
| NCCCC[C@@H]1NC(=O)[C@H](CCCNC(N)=O)NC(=O)[C@H](Cc2ccc(O)cc2)NC(=O)[C@@H](NC(=O)[C@@H](NC(=O)[C@H](CCCN=C(N)N)NC(=O)[C@@H](N)CCCN=C(N)N)c2ccc3ccccc3c2)CSSC[C@@H](C(=O)N[C@@H](CCCN=C(N)N)C(N)=O)NC(=O)[C@H](CCCNC(N)=O)NC(=O)[C@H](CCCN=C(N)N)NC(=O)[C@H](Cc2ccc(O)cc2)NC(=O)[C@@H]2CCCN2C(=O)[C@@H](CCCCN)NC1=O [Derivative of T140 peptide] | – | 12 nM | 0.6 nM |
| NCCCC[C@@H]1NC(=O)[C@H](CCCNC(N)=O)NC(=O)[C@H](Cc2ccc(O)cc2)NC(=O)[C@@H](NC(=O)[C@@H](NC(=O)[C@H](CCCN=C(N)N)NC(=O)[C@@H](N)CCCN=C(N)N)c2ccc3ccccc3c2)CSSC[C@@H](C(=O)N[C@@H](CCCN=C(N)N)C(N)=O)NC(=O)[C@H](CCCNC(N)=O)NC(=O)[C@H](CCCN=C(N)N)NC(=O)[C@H](Cc2ccc(O)cc2)NC(=O)[C@@H]2CCCN2C(=O)[C@@H](CCCNC(N)=O)NC1=O [Derivative of T140 peptide] | – | 19 nM | 0.4 nM |
| NCCCC[C@@H]1NC(=O)[C@H](CCCNC(N)=O)NC(=O)[C@H](Cc2ccc(O)cc2)NC(=O)[C@@H](NC(=O)[C@H](Cc2ccc3ccccc3c2)NC(=O)[C@H](CCCN=C(N)N)NC(=O)[C@@H](N)CCCNC(N)=O)CSSC[C@@H](C(=O)N[C@@H](CCCN=C(N)N)C(N)=O)NC(=O)[C@H](CCCNC(N)=O)NC(=O)[C@H](CCCN=C(N)N)NC(=O)[C@H](Cc2ccc(O)cc2)NC(=O)[C@@H]2CCCN2C(=O)[C@@H](CCCCN)NC1=O [Derivative of T140 peptide] | 6.6 nM | – | – |
| Nc1ccn([C@H]2CC[C@@H](CO)O2)c(=O)n1 [Dideoxycytidine] | 88 nM | – | – |
| NCCCC[C@@H]1NC(=O)[C@H](CCCN=C(N)N)NC(=O)[C@H](Cc2ccc(O)cc2)NC(=O)[C@@H](NC(=O)[C@@H](NC(=O)[C@H](CCCN=C(N)N)NC(=O)[C@@H](N)CCCN=C(N)N)c2ccc3ccccc3c2)CSSC[C@@H](C(=O)N[C@@H](CCCN=C(N)N)C(=O)O)NC(=O)[C@H](CCCNC(N)=O)NC(=O)[C@H](CCCN=C(N)N)NC(=O)[C@H](Cc2ccc(O)cc2)NC(=O)[C@@H]2CCCN2C(=O)[C@@H](CCCNC(N)=O)NC1=O [T140] | – | 23 nM | 4 nM |

More lines, now with the values ahead:

| EC50 [1] | IC50 [2] | EC50 [3] | Structure (SMILES) |
| --- | --- | --- | --- |
| 68 nM | – | – | NCCCC[C@@H]1NC(=O)[C@H](CCCN=C(N)N)NC(=O)[C@H](Cc2ccc(O)cc2)NC(=O)[C@@H](NC(=O)[C@@H](NC(=O)[C@H](CCCN=C(N)N)NC(=O)[C@@H](N)CCCNC(N)=O)c2ccc3ccccc3c2)CSSC[C@@H](C(=O)N[C@@H](CCCN=C(N)N)C(=O)O)NC(=O)[C@H](CCCNC(N)=O)NC(=O)[C@H](CCCNC(N)=O)NC(=O)[C@H](Cc2ccc(O)cc2)NC(=O)[C@@H]2CCCN2C(=O)[C@@H](CCCCN)NC1=O [Derivative of T140 peptide] |
| 40 nM | – | – | NCCCC[C@@H]1NC(=O)[C@H](CCCN=C(N)N)NC(=O)[C@H](Cc2ccc(O)cc2)NC(=O)[C@@H](NC(=O)[C@@H](NC(=O)[C@H](CCCN=C(N)N)NC(=O)[C@@H](N)CCCNC(N)=O)c2ccc3ccccc3c2)CSSC[C@@H](C(=O)N[C@@H](CCCN=C(N)N)C(N)=O)NC(=O)[C@H](CCCNC(N)=O)NC(=O)[C@H](CCCNC(N)=O)NC(=O)[C@H](Cc2ccc(O)cc2)NC(=O)[C@@H]2CCCN2C(=O)[C@@H](CCCCN)NC1=O [Derivative of T140 peptide] |
| – | 51 nM | 0.5 nM | NCCCC[C@@H]1NC(=O)[C@H](CCCNC(N)=O)NC(=O)[C@H](Cc2ccc(O)cc2)NC(=O)[C@@H](NC(=O)[C@@H](NC(=O)[C@H](CCCN=C(N)N)NC(=O)[C@@H](N)CCCN=C(N)N)c2ccc3ccccc3c2)CSSC[C@@H](C(=O)N[C@@H](CCCN=C(N)N)C(=O)O)NC(=O)[C@H](CCCNC(N)=O)NC(=O)[C@H](CCCN=C(N)N)NC(=O)[C@H](Cc2ccc(O)cc2)NC(=O)[C@@H]2CCCN2C(=O)[C@@H](CCCNC(N)=O)NC1=O [Derivative of T140 peptide] |
| 8.9 nM | – | – | NCCCC[C@@H]1NC(=O)[C@H](CCCNC(N)=O)NC(=O)[C@H](Cc2ccc(O)cc2)NC(=O)[C@@H](NC(=O)[C@@H](NC(=O)[C@H](CCCN=C(N)N)NC(=O)[C@@H](N)CCCN=C(N)N)c2ccc3ccccc3c2)CSSC[C@@H](C(=O)N[C@@H](CCCN=C(N)N)C(=O)O)NC(=O)[C@H](CCCNC(N)=O)NC(=O)[C@H](CCCNC(N)=O)NC(=O)[C@H](Cc2ccc(O)cc2)NC(=O)[C@@H]2CCCN2C(=O)[C@@H](CCCCN)NC1=O [Derivative of T140 peptide] |
| 6.8 nM | – | – | NCCCC[C@@H]1NC(=O)[C@H](CCCNC(N)=O)NC(=O)[C@H](Cc2ccc(O)cc2)NC(=O)[C@@H](NC(=O)[C@@H](NC(=O)[C@H](CCCN=C(N)N)NC(=O)[C@@H](N)CCCN=C(N)N)c2ccc3ccccc3c2)CSSC[C@@H](C(=O)N[C@@H](CCCN=C(N)N)C(N)=O)NC(=O)[C@H](CCCNC(N)=O)NC(=O)[C@H](CCCNC(N)=O)NC(=O)[C@H](Cc2ccc(O)cc2)NC(=O)[C@@H]2CCCN2C(=O)[C@@H](CCCCN)NC1=O [Derivative of T140 peptide] |
| 37 nM | – | – | NCCCC[C@@H]1NC(=O)[C@H](CCCNC(N)=O)NC(=O)[C@H](Cc2ccc(O)cc2)NC(=O)[C@@H](NC(=O)[C@@H](NC(=O)[C@H](CCCN=C(N)N)NC(=O)[C@@H](N)CCCNC(N)=O)c2ccc3ccccc3c2)CSSC[C@@H](C(=O)N[C@@H](CCCN=C(N)N)C(=O)O)NC(=O)[C@H](CCCNC(N)=O)NC(=O)[C@H](CCCN=C(N)N)NC(=O)[C@H](Cc2ccc(O)cc2)NC(=O)[C@@H]2CCCN2C(=O)[C@@H](CCCCN)NC1=O [Derivative of T140 peptide] |
